Source: the supplement of paper PMC12463676, “Small-molecule dissolution of stress granules by redox modulation benefits ALS models” (Nature Chemical Biology, 2025)

Assays:
[1] = compound: NC(=O)CCCCC1CCSS1 [lipoamide]; test: thermal stability z-score vs DMSO; higher = more thermally stabilized by treatment; conditions: HeLa, lipoamide concentration 100 µM
Description: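 Cellular thermal proteome profiling in HeLa cells. Cells were treated with 100 µM lipoamide for 1 h, with or without 1 mM arsenate for a further 1 h, then heated to ten temperatures (37-66.3 °C), and soluble protein was quantified by TMT mass spectrometry relative to 0.1% DMSO controls. The thermal stability score (sum of log2 fold changes minus the abundance score) was transformed to a z-score; mean of n = 3 experiments.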

[2] = compound: O=[As]([O-])(O)O.[K+] [potassium arsenate]; test: as above; conditions: HeLa; arsenate concentration 1 mM
Description: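 Cellular thermal proteome profiling in HeLa cells treated with 1 mM arsenate for 1 h (DMSO pretreatment), heated to ten temperatures (37-66.3 °C). Soluble protein was quantified by TMT mass spectrometry relative to DMSO controls; the thermal stability score was transformed to a z-score; mean of n = 3 experiments.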

[3] = arsenate co-treatment: 1 mM arsenate 1 h
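Note: each temperature applied for 3 min, abundance score taken as mean log2 fold change at the two lowest temperatures, z-score obtained by mean subtraction and division by SD.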

Chain of UniProt Q5T2R2 (Q5T2R2 whole entry): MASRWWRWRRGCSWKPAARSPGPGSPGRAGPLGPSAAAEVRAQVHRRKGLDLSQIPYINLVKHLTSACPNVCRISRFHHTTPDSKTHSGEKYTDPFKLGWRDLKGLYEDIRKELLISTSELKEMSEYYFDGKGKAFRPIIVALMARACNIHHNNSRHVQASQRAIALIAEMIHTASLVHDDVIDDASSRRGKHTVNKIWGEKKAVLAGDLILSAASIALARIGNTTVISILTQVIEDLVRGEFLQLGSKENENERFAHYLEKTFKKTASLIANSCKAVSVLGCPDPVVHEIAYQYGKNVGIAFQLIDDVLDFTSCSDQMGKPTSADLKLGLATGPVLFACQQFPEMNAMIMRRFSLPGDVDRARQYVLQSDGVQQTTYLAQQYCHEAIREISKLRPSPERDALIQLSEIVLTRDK
Chain of UniProt O94966 (O94966 whole entry): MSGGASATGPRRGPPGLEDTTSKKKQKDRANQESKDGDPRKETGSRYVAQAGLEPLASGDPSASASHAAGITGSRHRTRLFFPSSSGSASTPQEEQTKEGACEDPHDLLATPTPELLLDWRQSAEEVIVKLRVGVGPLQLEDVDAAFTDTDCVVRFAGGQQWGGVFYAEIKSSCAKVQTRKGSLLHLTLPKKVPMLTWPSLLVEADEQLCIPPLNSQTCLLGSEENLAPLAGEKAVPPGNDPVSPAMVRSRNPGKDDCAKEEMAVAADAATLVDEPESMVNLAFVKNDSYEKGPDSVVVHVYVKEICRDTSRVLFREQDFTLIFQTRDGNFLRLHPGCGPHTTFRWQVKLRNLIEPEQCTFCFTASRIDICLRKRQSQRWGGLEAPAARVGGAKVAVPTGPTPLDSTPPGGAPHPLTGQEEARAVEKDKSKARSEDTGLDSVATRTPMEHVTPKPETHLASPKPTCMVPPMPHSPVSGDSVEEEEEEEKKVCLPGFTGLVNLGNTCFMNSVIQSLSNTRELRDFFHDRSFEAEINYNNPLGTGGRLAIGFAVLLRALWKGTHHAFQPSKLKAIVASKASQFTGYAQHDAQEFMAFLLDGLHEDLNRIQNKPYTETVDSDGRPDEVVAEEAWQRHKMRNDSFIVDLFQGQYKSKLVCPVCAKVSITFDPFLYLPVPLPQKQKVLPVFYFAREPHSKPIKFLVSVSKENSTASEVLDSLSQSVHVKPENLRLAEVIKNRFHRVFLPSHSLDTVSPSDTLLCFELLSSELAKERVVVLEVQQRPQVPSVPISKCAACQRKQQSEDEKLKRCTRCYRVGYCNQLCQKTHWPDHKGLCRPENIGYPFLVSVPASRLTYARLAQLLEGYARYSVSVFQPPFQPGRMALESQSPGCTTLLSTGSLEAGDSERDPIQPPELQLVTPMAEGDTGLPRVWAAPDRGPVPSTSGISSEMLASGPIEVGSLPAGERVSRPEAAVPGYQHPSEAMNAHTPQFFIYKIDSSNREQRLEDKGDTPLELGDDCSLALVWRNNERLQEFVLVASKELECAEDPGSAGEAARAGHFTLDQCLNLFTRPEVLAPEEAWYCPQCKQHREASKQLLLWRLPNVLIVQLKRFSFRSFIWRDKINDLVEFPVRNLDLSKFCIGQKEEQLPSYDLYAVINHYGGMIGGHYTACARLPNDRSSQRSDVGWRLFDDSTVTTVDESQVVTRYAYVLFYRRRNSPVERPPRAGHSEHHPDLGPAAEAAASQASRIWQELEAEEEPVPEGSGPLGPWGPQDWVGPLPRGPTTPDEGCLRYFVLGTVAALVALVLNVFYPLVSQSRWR
Chain of UniProt Q96EB1 (Q96EB1 whole entry): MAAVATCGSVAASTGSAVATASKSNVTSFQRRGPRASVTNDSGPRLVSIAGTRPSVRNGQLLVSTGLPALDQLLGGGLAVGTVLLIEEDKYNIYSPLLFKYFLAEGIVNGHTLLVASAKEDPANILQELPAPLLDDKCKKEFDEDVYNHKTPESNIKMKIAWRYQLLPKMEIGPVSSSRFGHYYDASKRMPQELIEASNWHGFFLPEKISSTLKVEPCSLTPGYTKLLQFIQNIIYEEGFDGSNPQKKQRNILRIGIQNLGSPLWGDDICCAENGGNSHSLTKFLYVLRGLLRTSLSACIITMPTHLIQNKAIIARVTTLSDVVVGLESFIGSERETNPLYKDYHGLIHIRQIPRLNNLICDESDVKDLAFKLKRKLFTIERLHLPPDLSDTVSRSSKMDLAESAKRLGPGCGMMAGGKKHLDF
Chain of UniProt P12277 (P12277 whole entry): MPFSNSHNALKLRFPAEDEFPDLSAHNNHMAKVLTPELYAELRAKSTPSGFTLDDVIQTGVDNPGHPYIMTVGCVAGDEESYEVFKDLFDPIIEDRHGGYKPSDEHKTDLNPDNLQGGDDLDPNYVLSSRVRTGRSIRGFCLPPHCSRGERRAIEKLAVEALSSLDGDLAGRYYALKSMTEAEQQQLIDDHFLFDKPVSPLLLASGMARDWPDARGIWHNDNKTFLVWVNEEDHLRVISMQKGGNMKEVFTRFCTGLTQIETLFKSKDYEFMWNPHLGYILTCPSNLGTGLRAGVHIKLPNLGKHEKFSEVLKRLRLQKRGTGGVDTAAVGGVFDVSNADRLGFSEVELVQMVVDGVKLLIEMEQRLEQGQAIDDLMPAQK
Chain of UniProt O95302 (O95302 whole entry): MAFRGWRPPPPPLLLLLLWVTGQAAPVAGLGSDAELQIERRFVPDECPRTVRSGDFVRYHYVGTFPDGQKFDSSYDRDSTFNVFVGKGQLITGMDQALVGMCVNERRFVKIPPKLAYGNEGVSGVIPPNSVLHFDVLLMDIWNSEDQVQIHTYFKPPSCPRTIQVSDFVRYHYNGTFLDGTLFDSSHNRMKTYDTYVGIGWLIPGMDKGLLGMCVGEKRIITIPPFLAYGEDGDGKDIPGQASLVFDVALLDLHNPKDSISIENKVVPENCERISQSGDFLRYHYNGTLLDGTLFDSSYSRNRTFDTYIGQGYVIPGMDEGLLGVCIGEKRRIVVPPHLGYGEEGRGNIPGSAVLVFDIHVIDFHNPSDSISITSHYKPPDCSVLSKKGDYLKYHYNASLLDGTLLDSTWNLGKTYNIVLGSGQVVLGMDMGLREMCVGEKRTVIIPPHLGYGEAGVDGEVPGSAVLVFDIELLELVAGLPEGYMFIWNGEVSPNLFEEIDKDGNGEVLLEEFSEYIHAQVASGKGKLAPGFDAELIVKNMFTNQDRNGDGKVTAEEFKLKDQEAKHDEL
Chain of UniProt P52657 (P52657 whole entry): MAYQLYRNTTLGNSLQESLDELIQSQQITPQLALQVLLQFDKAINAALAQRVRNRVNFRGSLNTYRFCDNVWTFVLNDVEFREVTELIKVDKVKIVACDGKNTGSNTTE
Chain of UniProt P38159 (P38159 whole entry): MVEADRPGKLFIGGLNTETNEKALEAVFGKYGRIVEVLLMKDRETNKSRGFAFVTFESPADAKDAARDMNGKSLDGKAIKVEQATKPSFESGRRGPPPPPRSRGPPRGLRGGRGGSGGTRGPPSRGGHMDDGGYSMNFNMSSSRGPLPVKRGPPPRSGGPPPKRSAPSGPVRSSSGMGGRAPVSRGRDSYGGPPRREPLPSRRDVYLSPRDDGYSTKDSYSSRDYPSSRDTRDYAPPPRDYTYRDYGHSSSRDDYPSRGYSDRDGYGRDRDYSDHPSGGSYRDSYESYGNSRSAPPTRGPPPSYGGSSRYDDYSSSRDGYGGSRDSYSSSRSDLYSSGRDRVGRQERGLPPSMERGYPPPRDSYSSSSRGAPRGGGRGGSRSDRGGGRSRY
Chain of UniProt O43805 (O43805 whole entry): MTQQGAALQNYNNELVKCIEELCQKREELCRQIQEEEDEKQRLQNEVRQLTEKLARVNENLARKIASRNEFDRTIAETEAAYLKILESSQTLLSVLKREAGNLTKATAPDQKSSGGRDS
Chain of UniProt Q9UKB1 (Q9UKB1 whole entry): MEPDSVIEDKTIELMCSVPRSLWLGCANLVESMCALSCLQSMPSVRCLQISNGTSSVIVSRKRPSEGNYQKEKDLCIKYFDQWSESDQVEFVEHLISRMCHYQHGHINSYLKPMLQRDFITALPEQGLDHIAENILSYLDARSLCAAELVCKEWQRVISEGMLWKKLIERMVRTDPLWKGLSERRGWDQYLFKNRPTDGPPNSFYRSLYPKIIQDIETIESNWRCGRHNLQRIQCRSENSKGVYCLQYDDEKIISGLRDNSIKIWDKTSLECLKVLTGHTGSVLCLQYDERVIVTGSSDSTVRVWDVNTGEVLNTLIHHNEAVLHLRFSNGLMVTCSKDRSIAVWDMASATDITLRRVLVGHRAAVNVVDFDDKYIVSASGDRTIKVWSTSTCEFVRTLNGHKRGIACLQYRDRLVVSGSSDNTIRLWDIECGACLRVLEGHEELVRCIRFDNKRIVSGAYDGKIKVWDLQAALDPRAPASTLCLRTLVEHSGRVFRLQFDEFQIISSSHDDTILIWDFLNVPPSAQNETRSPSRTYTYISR
Chain of UniProt O00418 (O00418 whole entry): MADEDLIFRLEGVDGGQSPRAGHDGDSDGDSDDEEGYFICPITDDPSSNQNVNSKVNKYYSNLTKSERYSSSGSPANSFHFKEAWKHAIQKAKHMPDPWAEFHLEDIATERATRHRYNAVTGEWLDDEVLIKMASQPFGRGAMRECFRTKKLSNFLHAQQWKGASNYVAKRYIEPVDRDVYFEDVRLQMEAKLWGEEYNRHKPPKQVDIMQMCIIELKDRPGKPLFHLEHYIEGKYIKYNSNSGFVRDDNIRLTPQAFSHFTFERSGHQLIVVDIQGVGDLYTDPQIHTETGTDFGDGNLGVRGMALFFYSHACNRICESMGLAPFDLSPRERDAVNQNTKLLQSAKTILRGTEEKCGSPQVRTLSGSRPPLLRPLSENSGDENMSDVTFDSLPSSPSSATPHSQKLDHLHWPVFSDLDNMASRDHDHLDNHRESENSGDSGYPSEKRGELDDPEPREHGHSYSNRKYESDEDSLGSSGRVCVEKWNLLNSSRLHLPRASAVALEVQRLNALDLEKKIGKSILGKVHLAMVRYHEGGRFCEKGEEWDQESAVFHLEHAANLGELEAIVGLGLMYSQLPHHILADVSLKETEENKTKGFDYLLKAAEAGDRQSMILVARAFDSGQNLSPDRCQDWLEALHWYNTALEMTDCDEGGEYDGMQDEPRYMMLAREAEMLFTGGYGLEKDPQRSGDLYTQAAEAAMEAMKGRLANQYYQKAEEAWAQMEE

Target | thermal stability z-score [1, 3] | thermal stability z-score ([1]; arsenate co-treatment: none) | thermal stability z-score [2]
FGFR1OP (UniProt O95684) | 0.163 | -0.0584 | 1.33
FBL (UniProt P22087) | 0.277 | -0.112 | 0.723
METTL2A (UniProt Q96IZ6) | 0.394 | 0.528 | -0.0971
PTGR2 (UniProt Q8N8N7) | 2.64 | 1.03 | 0.744
STXBP5 (UniProt Q5T5C0) | 0.208 | 0.496 | 1.77
FKBP9 (UniProt O95302) | -3.58 | -2.22 | 0.508
DTYMK (UniProt P23919) | -0.383 | 0.537 | -1.22
FBXW11 (UniProt Q9UKB1) | 0.162 | -0.0669 | 0.814
PCF11 (UniProt O94913) | -0.0765 | -0.00889 | -0.0822
MAP2K3 (UniProt P46734) | -0.4 | -0.138 | 0.235
ELP4 (UniProt Q96EB1) | -0.492 | 0.609 | 0.742
MYH14 (UniProt Q7Z406) | 0.363 | 0.126 | 0.458
GLCE (UniProt O94923) | 0.386 | 0.177 | 0.231
TRIM32 (UniProt Q13049) | -0.257 | -0.125 | -3.56
GTF2A2 (UniProt P52657) | -0.322 | -0.782 | -0.823
POFUT1 (UniProt Q9H488) | -3.78 | -3.17 | 1.06
SCAF4 (UniProt O95104) | 0.0769 | 0.184 | 0.0697
SUPT5H (UniProt O00267) | 0.685 | -0.0241 | -0.186
DEK (UniProt P35659) | 0.116 | 0.695 | -0.316
GLA (UniProt P06280) | -1.1 | -0.822 | 0.421
FAM118B (UniProt Q9BPY3) | 0.49 | -0.244 | 0.57
PIP4K2C (UniProt Q8TBX8) | 0.0507 | 0.12 | 1.78
RBMX (UniProt P38159) | 1.51 | 0.311 | -0.366
PDSS1 (UniProt Q5T2R2) | 0.272 | 0.466 | 0.423
RAB3IL1 (UniProt Q8TBN0) | -0.235 | 0.559 | -0.89
EEF2K (UniProt O00418) | -0.0522 | -0.0721 | -0.0657
MAN1A2 (UniProt O60476) | -0.432 | -0.498 | -0.352
MRPL3 (UniProt P09001) | -0.851 | -0.0275 | -0.132

Target | thermal stability z-score [1, 3] | thermal stability z-score ([1]; arsenate co-treatment: none) | thermal stability z-score [2]
MGRN1 (UniProt O60291) | -0.792 | -0.153 | -0.181
BTAF1 (UniProt O14981) | 0.085 | 0.175 | -0.192
GMPS (UniProt P49915) | -0.853 | -0.447 | -0.42
USP19 (UniProt O94966) | 0.774 | -0.193 | -0.0515
ODF2 (UniProt Q5BJF6) | 0.0591 | 0.0281 | -0.129
IFT81 (UniProt Q8WYA0) | -0.223 | -0.039 | -0.072
ITGB1 (UniProt P05556) | -0.614 | -0.431 | 0.139
PAPOLA (UniProt P51003) | -0.22 | -0.103 | -0.119
LRRC47 (UniProt Q8N1G4) | 0.175 | 0.38 | 1.06
AKAP1 (UniProt Q92667) | 0.866 | 0.652 | 0.73
ATXN10 (UniProt Q9UBB4) | 0.258 | 0.374 | -1.03
SSNA1 (UniProt O43805) | 1.6 | 1.39 | 1.34
EIF3J (UniProt O75822) | 0.395 | -0.118 | 0.444
CCDC134 (UniProt Q9H6E4) | -2.13 | -1.37 | -0.0932
LGALS3 (UniProt P17931) | 0.762 | 0.918 | -0.377
C6ORF106 (UniProt Q9H6K1) | -0.69 | -0.401 | 0.242
APEX2 (UniProt Q9UBZ4) | 0.0959 | 0.209 | -0.747
CKB (UniProt P12277) | -0.249 | -0.245 | -1.02
RAB3GAP1 (UniProt Q15042) | -0.562 | -0.113 | 0.764
CDC37L1 (UniProt Q7L3B6) | -0.275 | -0.0638 | 0.23
VPS4B (UniProt O75351) | 0.854 | 0.498 | 0.314
INPP5K (UniProt Q9BT40) | -0.0181 | 0.225 | 0.268
POLR3F (UniProt Q9H1D9) | -0.186 | -0.242 | -1.32
TTC19 (UniProt Q6DKK2) | 0.927 | 0.897 | -1.29
ACTN1 (UniProt P12814) | 0.249 | 0.339 | 0.163
RAB3GAP2 (UniProt Q9H2M9) | -0.717 | -0.266 | 0.64
MARCKS (UniProt P29966) | 0.62 | 0.121 | 0.943
